Data from patent EP0569598A1, “BENZOXAZINONE DERIVATIVE” (JAPAN TOBACCO INC., priority 1991, dated 1993).

How the values were obtained:
[1] = biological target: T1, bovine pancreatic α-chmotrypsin (CYT) (Bos taurus, UniProt P00766); assay: CYT inhibitory activity (synthetic substrate, pNA release); assay type: biochemical; settings: pH 8.0; CYT 3.4 nM, substrate 0.273 mM; read-out: IC₅₀ value CYT
T1 construct: bovine pancreatic α-chmotrypsin (CYT); purchased Sigma Co., Ltd
Description: (§1) Activities of the Benzoxazine derivatives of the present invention against human leukocyte elastase (HLE), human sputum elastase (HSE), human cathepsin G (HCG), bovine pancreatic α-chmotrypsin (CYT) and bovine pancreatic trypsin (TRY) were measured by the following method.
(§2) A test compound was dissolved in DMSO (for fluorometry) and prepared various concentration of the solution. To each concentration was added 2-fold volume of 0.2M Tris-HCl (pH8.6), thereby obtaining a test solution. Synthetic substrate (Funakoshi, L-1335) was dissolved in DMSO and 2-volume of 0.2M Tris-HCl (pH8.6) was added thereto, thereby obtaining a substrate solution. The reaction was performed using a microplate having 96 wells (Nunk). Six-time reactions were repeated for each concentration. One handred and forty µl of an enzyme solution containing 0.2M Tris-HCl (pH8.6), 30 µl of a test solution and 30 µl of a substrate solution per well of the microplate were respectively pre-incubated at 37°C for 10 minutes. After completion of the incubation, the enzyme solution was mixed with the test sample and incubated for 10 minutes and then the substrate solution was added to perform an enzyme reaction. The absorbance of released P-nitroanilide (PNA) was measured at the wave length of 405 nm by means of a microplate reader (MTP-100; CORONA), thereby determining the substrate decomposition. The rate of the substrate decomposition was shown as an average value of 6 repeated reactions. The inhibitory concentration of a test compound relative to the amount of the substrate decomposition in the reaction mixture without a test compound was regarded as an IC₅₀ value. The final concentration of HLE and a synthesized substrate in the reaction mixture were 5.63 nM and 0.2625 mM, respectively.
a) Enzyme obtaining route CYT was obtained from Sigma Co., Ltd.
Substantially the same method as used in the measurement of the HLE inhibitory activity was used except that a buffer solution (pH 8.0) was used. The final concentration of CYT and synthetic substrate (Funakoshi, L-1010) in a reaction mixture were 3.4 nM and 0.273 mM, respectively.

[2] = biological target: T2, human leukocyte elastase (HLE) (Homo sapiens, UniProt P08246); assay: HLE inhibitory activity (synthetic substrate, pNA release, absorbance 405 nm); assay type: biochemical; settings: pH 8.6; HLE 5.63 nM, substrate 0.2625 mM; 37°C; read-out: IC₅₀ value HLE
T2 construct: the mixed solution was subjected to density gradient centrifugation, thereby obtaining neutrophiles; from tissue; host or cells: neutrophils from human vein blood (buffy coat)
T2 sequence (P08246 30-247 limits assumed): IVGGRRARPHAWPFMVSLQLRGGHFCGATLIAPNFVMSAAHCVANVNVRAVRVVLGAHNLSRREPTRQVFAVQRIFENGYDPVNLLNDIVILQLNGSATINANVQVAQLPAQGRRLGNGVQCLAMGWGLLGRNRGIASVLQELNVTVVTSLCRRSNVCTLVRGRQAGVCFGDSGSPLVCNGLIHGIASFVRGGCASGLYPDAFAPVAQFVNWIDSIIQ
Description: as §1
A buffy coat was obtained by subjecting human vein blood to centrifugation. To the buffy coat was added distilled water to make a hypotonic solution, thereby bursting erythrocytes. To the residual blood cell component was added a 33.4% of Conrey 400 solution/9% Ficoll solution (the ratio of the former solution to the latter solution is 10:24), and the mixed solution was subjected to density gradient centrifugation, thereby obtaining neutrophiles. The neutrophile fraction was washed with Hanks' buffer for three times and then cells were recovered and cryopreserved at -80°C until use. The cryopreserved-cells were thawed with warm water at 37°C and suspended in a 9-fold volume of lysis buffer containing 0.1M Tris-HCl (pH7.5), 1M MgCl₂ and 0.1% Brij 35. The suspended cells are destroyed by means of polotoron with ice-cooling. The cell suspension was subjected to centrifugation at 100,000 x g for 1 hour. After removing precipitates, 2-fold volume of a Tris-HCl buffer containing 5 mM Tris-HCl(pH 7.5), 1M NaCl and 1.1% Brij 35 was added to the supernatant, thereby obtaining a crude solution of an enzyme extract. The crude solution was subjected to aprotinine affinity column and extracted with an elution buffer containing […] of glycine-HCl (pH 3.3), 1M NaCl and 0.1% Brij 35, thereby obtaining an active fraction. The obtained active fraction was further subjected to MONO S-ion-exchange chromatography and eluted with 2M NaCl linear gradient. The obtained fraction was dialyzed against 25 mM Tris-HCl (pH8.6) and lyophilized, thereby obtained an enzyme sample.
as §2

[3] = biological target: T3, human cathepsin G (HCG) (Homo sapiens, UniProt P08311); assay: HCG inhibitory activity (synthetic substrate, pNA release); assay type: biochemical; settings: pH 7.5; HCG 50 nM, substrate 0.5 mM; read-out: IC₅₀ value HCG
T3 construct: purchased Cosmo Bio Inc
T3 sequence (P08311 21-244): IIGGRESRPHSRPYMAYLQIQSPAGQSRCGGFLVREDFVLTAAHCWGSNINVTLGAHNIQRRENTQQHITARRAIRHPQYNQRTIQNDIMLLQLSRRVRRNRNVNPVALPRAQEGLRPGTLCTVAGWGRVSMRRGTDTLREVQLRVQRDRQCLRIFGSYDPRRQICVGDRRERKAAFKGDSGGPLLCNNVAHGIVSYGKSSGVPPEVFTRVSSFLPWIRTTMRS
Description: as §1, §2
a) Enzyme obtaining route HCG was obtained from Cosmo Bio Inc.
The same method as in the measurement of HLE inhibitory activity was used except that a buffer solution (pH 7.5) was used. The final concentration of HCG and synthetic substrate (Funakoshi, L-1010) in a reaction mixture were 50 nM and 0.5 mM, respectively.

[4] = tested on: Neutrophile Infiltration of Carrageenin-induced Air Pouch inflammation; assay: Suppression of neutrophile infiltration in carrageenin-induced air pouch inflammation; assay type: in vivo, rat; settings: Dose 10.9 µmol into the air pouch immediately after carrageenin, exudate cells five hours later, SD female rats
Description: SD female rats in 5 weeks old, having the weight in the range of 110 to 130g were used. A group was regarded to have 5 rats. In the first step, an air pouch was formed by a hypodermic injection of 8 ml of air on the back of a rat under ether anesthesia. Twenty four hours later, to the air pouch was added 5 ml of a saline containing 1% carrageenin (Wako Co., Ltd.). A test compound of the present invention, which has been dissolved in 200 µl DMSO (dimethylsulfoxide), was administered in the air pouch immediately after the carrageenin injection.
Five hours later, the rat was killed and the blood was released. Then, 5 ml of PBS containing EDTA (ethylenediamine tetraacetate) was injected in the air pouch. The exudate in the air pouch was washed and collected. An aliquot of the exudate was measured by a colter counter and determined the number of cells in the collected exudate.
The value subtracting migrating cell number in an experiment performed without carrageenin injection from the migrating cell number in a control experiment administering no the compound of the present invention was regarded as 100, the chemotaxis suppressing activity was determined as the following formula: Cell Infiltration Suppressing Activity (%) [formula] = 100 - S/T x 100 [formula] = 100 - (U - V )/(W - V) x 100 [formula] […]

IC50 [1]: 2080 nM
IC50 [2]: 340 nM
IC50 [3]: 58300 nM
Compound: Cc1cccc2nc([C@@H](NC(=O)COC(c3ccccc3)c3ccccn3)C(C)C)oc(=O)c12 (mixture of isomers) [Compound 3, 5-methyl-2-[2-methyl-1(S)-[[[(±)-α-(2-pyridyl)benzyloxy]acetyl]amino]propyl]-4H-3,1-benzoxazin-4-one]
Rate (%) of Suppressing Cell Infietration [4]: 33.9%
Cell Infiltration ([4]; control regarded as 100): 66.1
